# Assay results taken from PMC12410356 (International Journal for Parasitology: Drugs and Drug …, 2025).
# Read-outs that look alike come from different tables or passages of the source.
# Key:
# [1] = test system: E. multilocularis metacestode vesicles; conditions: PGI release after five days, cited from earlier work
# [2] = test system: Reuber rat hepatoma (RH) cells; conditions: cited from earlier work
# [3] = test system: E. multilocularis GL cells; experiment: Seahorse mito cell stress test, oxygen consumption rate; type: cell-based, Echinococcus multilocularis; conditions: titration in GL cells
# Procedure: To measure mitochondrial respiration in E. multilocularis GL cells, Seahorse “mito cell stress test” was performed according to the manual for Seahorse XFp Extracellular Flux Analyzer (Agilent Technologies, Basel, Switzerland) with some adaptations ([Gu et al., 2021]; [Rufener et al., 2018]). Seahorse XFp 8-well plates were hydrated and incubated together with Seahorse XF calibrant solution at 37 °C in a non-CO2 incubator overnight the day before the actual experiment. […] Oligomycin was used at a final concentration of 1.5 μM. […] The experiment was repeated three times independently with two technical replicates.
# [4] = test system: E. multilocularis GL cells; set-up: method as in Stadelmann et al., 2016; conditions: ref Stadelmann et al., 2016; cited from earlier work
# [5] = test system: E. multilocularis metacestode vesicles; experiment: Phosphoglucose isomerase (PGI) release assay (damage-marker release) on metacestode vesicles; type: cell-based, Echinococcus multilocularis; conditions: 10 μM; for PGI d5 (relative PGI release): 5 days; for PGI d12 (relative PGI release): 12 days
# [6] = test system: E. multilocularis metacestode vesicles; experiment: Metacestode vesicle viability assay (ATP, CellTiter-Glo); type: cell-based, Echinococcus multilocularis; conditions: Echinococcus multilocularis, 288 h, 10 μM, 12 days, read-out: Viability d12 (relative viability)
# Procedure: Viability was assessed after 12 days using the same metacestode vesicles as for the PGI release assay. Triton X-100 was added to each well to a final concentration of 0.1 %. Subsequently the metacestode vesicles were broken mechanically and 50 μL of the supernatant was mixed with 50 μL of CellTiter-Glo® buffer (Promega, Dübendorf, Switzerland). Measurements were performed on a HIDEX Sense microplate reader.
# [7] = test system: E. multilocularis GL cells; experiment: Germinal layer cell viability assay (CellTiter-Glo); type: cell-based, Echinococcus multilocularis; conditions: for effect on GL cell viability (in words): 80 to 0.31 μM, 5 days; for IC50: Echinococcus multilocularis, 120 h, 5 days incubation, microaerobic, mean ± SD of three independent experiments
# Procedure: The isolation of GL cells was conducted according to ([Kaethner et al., 2023]). Briefly, conditioned DMEM (cDMEM) was prepared prior to isolation. For the preparation of cDMEM, 1 × 10^6 RH cells and 10 × 10^6 RH cells incubated in DMEM supplemented with 10 % FBS, penicillin (100 U/mL), streptomycin (100 μg/mL) and tetracycline (5 μg/mL) for six or four days, respectively, at 37 °C under a humid, 5 % CO2 atmosphere. The supernatant of each was mixed 1:1 and sterile filtrated, resulting in cDMEM. Metacestode vesicles of at least 6 months of age were washed with PBS, incubated in distilled H2O for 2.5 min and subsequently mechanically disrupted. The resulting pellet was resuspended in 7 vol of pre-warmed 0.05 % Trypsin/0.02 % EDTA and incubated at 37 °C for 30 min. GL cells were extracted from the laminated layer by vigorous shaking followed by filtration through a 30 μm mesh (Sefar AG, Heiden, Switzerland) and separated from calcareous corpuscles by short centrifugation at 50×g for 30 s at RT. The isolated cells were centrifuged for 10 min at 600×g and RT and the pellet was resuspended in cDMEM. The cell suspension was diluted 1:100 in PBS to measure the OD600. An OD600 value of 0.1 of this dilution was defined as one arbitrary unit (AU) per μL of the undiluted cell suspension corresponding to 0.97 ± 0.11 μg of total protein for the GL cells as measured via Pierce™ bicinchoninic acid (BCA) Protein Assay Kit according to the manufacturer's protocol (Fisher Scientific AG, Reinach, Switzerland). 1′000 AU per 5 mL of cDMEM were cultured at 37 °C overnight under a humid nitrogen atmosphere. The next day, 2′000 AU of GL cells were combined and further cultured for 3 h at 37 °C under a humid nitrogen atmosphere before they were used for further experiments.
# To assess effects of compounds on the cell viability of isolated E. multilocularis GL cells, the protocol was applied as previously described ([Kaethner et al., 2023]). In short, 15 AU of GL cells were distributed into each well of a black 384-well plate. Compounds dissolved in DMSO (alexidine, carbendazim, ESI-09, MMV1581545 and oxfendazole) were added to final concentrations ranging from 80 to 0.31 μM (1:2 serial dilution) and the cells were cultured for 5 days at 37 °C under a humid, microaerobic atmosphere (85 % N2, 10 % CO2, 5 % O2). DMSO with the respective concentration was used as a solvent control. Viability was measured using the CellTiter-Glo® kit. Luminescence was measured using a HIDEX Sense microplate reader. Measurements were done in quadruplicates and represented as relative viability of the DMSO controls. IC50 values were calculated in R applying the five parameter logistic model for three independent experiments ([Ritler et al., 2020]).
# [8] = test system: Reuber rat hepatoma (RH) cells; experiment: Mammalian cell toxicity, resazurin assay; type: cell-based; conditions: for toxicity against mammalian cell line (in words): RH cells counter-screen; for IC50: 5 days incubation, mean ± SD
# Procedure: Mammalian cell toxicity on RH cells was measured as described in [Rufener et al. (2018)] with few alterations. Briefly, confluent (50′000 cells/well) and pre-confluent (5′000 cells/well) were seeded into 96-well plates in DMEM supplemented with 10 % FBS, penicillin (100 U/mL), streptomycin (100 μg/mL) and tetracycline (5 μg/mL) and incubated at 37 °C under a humid, 5 % CO2 atmosphere for 24 h and 5 h respectively. Alexidine, ESI-09 and MMV1581545 were added to final concentrations ranging from 120 to 0.49 μM (1:3 serial dilution) to each well and then cells were incubated at 37 °C under a humid, 5 % CO2 atmosphere for 5 days. To measure viability, the medium was removed, 180 μL of PBS was added to the cells and resazurin was added to each well to a final concentration of 10 mg/L. The cells were then allowed to process the resazurin at RT for 1 h. Fluorescence was measured on a HIDEX Sense microplate reader. Measurements were performed in triplicates and IC50 values were calculated in R using the three parameter Weibull type 1 model for three independent experiments ([Ritler et al., 2020]).
# HUVEC cell line = test system: HUVEC cell line; set-up: method as in Mamouei et al., 2018; conditions: at 15 μM; ref Mamouei et al., 2018; cited from earlier work
# [9] = confluent, ref Rufener et al., 2018, read-out: IC50 confluent RH cells
# [10] = pre-confluent, ref Rufener et al., 2018, read-out: IC50 pre-confluent RH cells
# [11] = confirmation screen, triplicates, mean
# [12] = overview screen, singlets, relative to 0.1 % Triton X-100, DMSO subtracted
# [13] = overview screen, singlets, relative to DMSO control
# [14] = Rattus norvegicus, 120 h, confluent, read-out: IC50 confluent RH cells
# [15] = Rattus norvegicus, 120 h, pre-confluent, read-out: IC50 pre-confluent RH cells
Structure (SMILES),"IC50 ([1]; ref Rufener et al., 2018) [µM]","IC50 [2, 9] [µM]","IC50 [2, 10] [µM]","PGI d5 (relative PGI release) [5, 11] [%]","PGI d12 (relative PGI release) [5, 11] [%]","PGI d5 (relative PGI release) [5, 12] [%]","PGI d12 (relative PGI release) [5, 12] [%]","viability at 10 µM [6, 11] [%]","viability at 10 µM [6, 13] [%]",effect on GL cell viability (in words) [7],IC50 [7] [µM],toxicity against mammalian cell line (in words) [8],"IC50 [8, 14] [µM]","IC50 [8, 15] [µM]",other results
Cc1[nH]c2cc(F)cc(F)c2c(=O)c1-c1ccc(Oc2ccc(OC(F)(F)F)cc2)cc1 [ELQ-400],0.02 ± 0.01,2.07 ± 1.67,0.25 ± 0.11,,,,,,,,,,,,
N#CC(C#N)=NNc1ccc(OC(F)(F)F)cc1 [FCCP],,,,,,,,,,,,,,,optimal (maximal) uncoupling concentration [3]: 0.4 µM
O=C(Nc1cccc(C(F)(F)F)c1)c1cc(Cl)ccc1O [MMV665807],,,,,,,,,,,,,,,"IC50 ([1]; ref Stadelmann et al., 2016): 1.2 ± 1.6 µM; IC50 [4]: 0.6 ± 0.37 µM; IC50 ([2]; confluent, ref Stadelmann et al., 2016, read-out: IC50 confluent RH cells): 20.5 ± 0.13 µM; IC50 ([2]; pre-confluent, ref Stadelmann et al., 2016, read-out: IC50 pre-confluent RH cells): 4.8 ± 0.59 µM"
Cc1cc(O)c2c(c1)C(=O)c1c(I)c(C)c(I)c(O)c1C2=O [MMV1581545],,,,10.14,30.09,18.0887,27.8991,19.1,16.4,highly effective,7.89 ± 1.43,moderate toxicity,21.3 ± 4.39,13.8 ± 1.09,"IC50 ([8]; pre-confluent, read-out: IC50 pre-confluent RH cells): 14.7 ± 2.09 µM"
"CCCCC(CC)CNC(=N)NC(=N)NCCCCCCNC(=N)NC(=N)NCC(CC)CCCC (stereo not drawn) [alexidine, reference compound]",,,,32.36,76.1 ± 3.2,68.8052,92.491,34.4 ± 0.9,4.93,highly effective,10.7 ± 1.13,highly toxic,5.97 ± 4.89,2.8 ± 1.33,"PGI d12 (relative PGI release) ([5]; confirmation screen, triplicates, mean, listed as MMV396785): 76.16%; toxicity in the HUVEC cell line (in words) (HUVEC cell line): severe toxicity"
CC(C)(C)[C@H]1CC[C@H](CC2=C(O)C(=O)c3ccccc3C2=O)CC1 [buparvaquone],2.87 ± 1.45,17.4 ± 2.09,8.47 ± 3.89,,,,,,,,,,,,
